Measurements: PubChem BioAssay (NCI)
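Grown in 96-well plates, cells were treated for 48 hours with each compound at five concentrations. Insufficient inhibition: endpoint recorded as highest concentration tested. TGI marks complete inhibition of growth.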

Columns and labels:
Experiment in all cases: inhibition of tumour cell growth, NCI panel, 48 h
[1] = tested on: 786-0 renal
[2] = tested on: A549 NSCLC
[3] = tested on: ACHN renal
[4] = tested on: BT-549 breast
[5] = tested on: CAKI-1 renal
[6] = tested on: CCRF-CEM leukemia
[7] = tested on: COLO 205 colon
[8] = tested on: DU-145 prostate
[9] = tested on: EKVX NSCLC
[10] = tested on: HCC-2998 colon
[11] = tested on: HCT-116 colon
[12] = tested on: HCT-15 colon
[13] = tested on: HL-60(TB) leukemia
[14] = tested on: HOP-62 NSCLC
[15] = tested on: HOP-92 NSCLC
[16] = tested on: HS 578T breast
[17] = tested on: HT29 colon
[18] = tested on: IGROV1 ovarian
[19] = tested on: K-562 leukemia
[20] = tested on: KM12 colon
[21] = tested on: LOX IMVI melanoma
[22] = tested on: M14 melanoma
[23] = tested on: MALME-3M melanoma
[24] = tested on: MCF7 breast
[25] = tested on: MDA-MB-231 breast
[26] = tested on: MDA-MB-435
[27] = tested on: MDA-N
[28] = tested on: MOLT-4 leukemia
[29] = tested on: NCI-H226 lung
[30] = tested on: NCI-H23 lung
[31] = tested on: NCI-H460 lung
[32] = tested on: NCI-H522 lung
[33] = tested on: NCI/ADR-RES ovarian
[34] = tested on: OVCAR-3 ovarian
[35] = tested on: OVCAR-4 ovarian
[36] = tested on: OVCAR-5 ovarian
[37] = tested on: OVCAR-8 ovarian
[38] = tested on: PC-3 prostate
[39] = tested on: RXF 393 renal
[40] = tested on: SF-268 CNS
[41] = tested on: SF-295 CNS
[42] = tested on: SF-539 CNS
[43] = tested on: SK-MEL-2 melanoma
[44] = tested on: SK-MEL-28 melanoma
[45] = tested on: SK-MEL-5 melanoma
[46] = tested on: SK-OV-3 ovarian
[47] = tested on: SN12C renal
[48] = tested on: SNB-19 CNS
[49] = tested on: SNB-75 CNS
[50] = tested on: SR leukemia
[51] = tested on: SW-620 colon
[52] = tested on: T-47D breast
[53] = tested on: TK-10 renal
[54] = tested on: U251 CNS
[55] = tested on: UACC-257 melanoma
[56] = tested on: UACC-62 melanoma
[57] = tested on: UO-31 renal
[58] = tested on: A498 renal
[59] = tested on: RPMI-8226 leukemia

Measured: TGI

CC(=O)OC12OC(C)(C3C(=O)N(c4ccccc4)C(=O)C31)N(c1ccccc1)C2=O (configuration not stated)
not listed: [58] | [59]
> 100 µM: all other assays above

CC(C)(N)C(=O)N[C@@H]1C(=O)N2[C@@H]1SC(C)(C)[C@@H]2C(=O)O
not listed: [6] | [10] | [13] | [28]
> 100 µM: all other assays above
